Test [1] relates to IL1B (Interleukin 1, beta). Briefly: In vitro model of induced atopic dermatitis, RT-qPCR: IL1B. It counts as cell-based, human. The settings on record: NHEK + Poly(I:C), IL4, IL13, 24 h; 0.28 mM DEXA; control NHEK = 1. As for the experimental part:
(§1) The pharmacological model was described by Castex-Rizzi et al. (Br J Dermatol. 2014. 170 Suppl 1:12-8)
(§2) PCC extracts collected from crushed, dried, standardized Mimosa pudica culture medium W01D15 (with bioconversion) were dissolved/diluted in solution in 40% EtOH at initial concentrations of 75 mg/ml. The compounds were solubilized extemporaneously for viability tests as well as at the appropriate dose in order to measure pharmacological action on the model of induced atopic dermatitis.
(§3) Normal human epidermal keratinocytes (NHEKs) from Lonza. The cells are amplified under standard culture conditions.
(§4) NHEK cells are seeded and cultured in Keratinocyte-SFM culture medium. […]
(§5) Extraction was carried out using RNABle (Eurobio) and the RNeasy Mini Kit from QIAGEN. The total RNAs extracted are assayed on a spectrophotometer (NanoDrop, ND1000, Thermo Scientific) and their qualities analysed on agarose gel.
(§6) Real-time PCR is a precise, sensitive and rapid method that allows the relative quantification of the rate of expression of a target gene relative to that of a ubiquitously expressed reference gene. This technique makes it possible to quantify messenger RNA. […] Incorporation of a fluorophore (SYBR Green) during the hybridization step of exponential amplification allows quantification and real-time monitoring of the amount of neo-formed amplification product. […]
On the technique in general: Quantitative PCR measures a nucleic acid by following its amplification.

In test [2] the test system is RNASE7 (Ribonuclease, RNase A family, 7). Put plainly: In vitro model of induced atopic dermatitis, RT-qPCR: RNASE7. It counts as cell-based, human. The following applies: NHEK + Poly(I:C), IL4, IL13, 24 h; 0.28 mM DEXA; control NHEK = 1. As for the experimental part:
as §1, §2, §3, §4, §5, §6

Test [3] concerns TNF-alpha production in RAW264.7 cells. Put plainly: TNF-alpha Luminex assay in LPS-activated RAW264.7 macrophages. The format is cell-based. The following applies: Mus musculus, 1 μM dexamethasone 1 h before 0.2 μg/mL LPS, 24 h, read-out: inhibition of TNF-alpha production (% i). From the text: (§7) In this example, we compare the anti-inflammatory activity of 2 Mimosa pudica extracts (E11 and E13). Extract E11 comes from ethyl acetate extraction of the dried and crushed Mimosa pudica leaves and extract E13 comes from extraction with the same solvent of the crushed materials derived from Mimosa pudica plant cell culture without bioconversion in an Erlenmeyer flask. The 2 extracts were weighed after evaporation of the solvent to dryness. They were taken up in DMSO. To evaluate and compare the anti-inflammatory activity of the 2 extracts in the same concentrations, we have an in vitro pharmacological test which consists in stimulating murine macrophages, RAW264.7 cells, that express on their surface the TLR4 receptor by the bacterial LPS according to (Kang et al. 2002. J Pharmacol Exp Ther. 302:138-144). […]
Simultaneous assay of TNF-alpha in the cell supernatants was performed using the Luminex xMAP (multi-analyte profiling) technology which is based on the principles of flow cytometry and ELISA in a 96-well microplate. The microbeads used as substrate incorporate two fluorochromes in a precise ratio, which gives them an identifying colour code (different fluorescences). […] The second laser, green, (λ=532 nm) excites the reporter fluorochrome attached to the specific detection antibody in order to quantify the cytokine. […]
(§8) Concentrations are expressed as averages. […]

The subject of test [4] is TSLP (Thymic stromal lymphopoietin). Put plainly: In vitro model of induced atopic dermatitis, RT-qPCR: TSLP. It counts as cell-based, human. The settings on record: NHEK + Poly(I:C), IL4, IL13, 24 h; 0.28 mM DEXA; control NHEK = 1. As for the experimental part: as §1, §2, §3, §4, §5, §6
Test [5] deals with DEFB103A (Defensin, beta 103B). Briefly: In vitro model of induced atopic dermatitis, RT-qPCR: DEFB103A. The format is cell-based, human. The settings on record: NHEK + Poly(I:C), IL4, IL13, 24 h; 0.28 mM DEXA; control NHEK = 1. As for the experimental part: as §1, §2, §3, §4, §5, §6
The test system of test [6] is IL15 (Interleukin 15). Briefly: In vitro model of induced atopic dermatitis, RT-qPCR: IL15. The settings on record: NHEK + Poly(I:C), IL4, IL13, 24 h; 0.28 mM DEXA; control NHEK = 1. The format is cell-based, human. As for the experimental part: as §1, §2, §3, §4, §5, §6
The test system of test [7] is IL4R (Interleukin 4 receptor). Briefly: In vitro model of induced atopic dermatitis, RT-qPCR: IL4R. The following applies: NHEK + Poly(I:C), IL4, IL13, 24 h; 0.28 mM DEXA; control NHEK = 1. The format is cell-based, human. As for the experimental part: as §1, §2, §3, §4, §5, §6
Test [8] concerns IFNB1 (Interferon, beta 1, fibroblast). Briefly: In vitro model of induced atopic dermatitis, RT-qPCR: IFNB1. It counts as cell-based, human. The following applies: NHEK + Poly(I:C), IL4, IL13, 24 h; 0.28 mM DEXA; control NHEK = 1. As for the experimental part: as §1, §2, §3, §4, §5, §6
Test [9] deals with CCL5 (Chemokine (C-C motif) ligand 5). Put plainly: In vitro model of induced atopic dermatitis, RT-qPCR: CCL5. The format is cell-based, human. The following applies: NHEK + Poly(I:C), IL4, IL13, 24 h; 0.28 mM DEXA; control NHEK = 1. As for the experimental part: as §1, §2, §3, §4, §5, §6
Test [10] relates to CCL20 (Chemokine (C-C motif) ligand 20). Briefly: In vitro model of induced atopic dermatitis, RT-qPCR: CCL20. It counts as cell-based, human. The following applies: NHEK + Poly(I:C), IL4, IL13, 24 h; 0.28 mM DEXA; control NHEK = 1. As for the experimental part: as §1, §2, §3, §4, §5, §6
Test [11] deals with S100A7 (S100 calcium binding protein A7). Put plainly: In vitro model of induced atopic dermatitis, RT-qPCR: S100A7. The format is cell-based, human. The settings on record: NHEK + Poly(I:C), IL4, IL13, 24 h; 0.28 mM DEXA; control NHEK = 1. As for the experimental part:
as §1, §2, §3, §4, §5, §6

The subject of test [12] is TLR3 (Toll-like receptor 3). Briefly: In vitro model of induced atopic dermatitis, RT-qPCR: TLR3. The following applies: NHEK + Poly(I:C), IL4, IL13, 24 h; 0.28 mM DEXA; control NHEK = 1. It counts as cell-based, human. As for the experimental part:
as §1, §2, §3, §4, §5, §6

Test [13] deals with CCL13 (Chemokine (C-C motif) ligand 13). Briefly: In vitro model of induced atopic dermatitis, RT-qPCR: CCL13. The settings on record: NHEK + Poly(I:C), IL4, IL13, 24 h; 0.28 mM DEXA; control NHEK = 1. It counts as cell-based, human. As for the experimental part: as §1, §2, §3, §4, §5, §6
Test [14] deals with IL1A (Interleukin 1, alpha). Briefly: In vitro model of induced atopic dermatitis, RT-qPCR: IL1A. It counts as cell-based, human. The settings on record: NHEK + Poly(I:C), IL4, IL13, 24 h; 0.28 mM DEXA; control NHEK = 1. As for the experimental part: as §1, §2, §3, §4, §5, §6
Test [15] concerns CX3CL1 (Fractalkine). Briefly: In vitro model of induced atopic dermatitis, RT-qPCR: CX3CL1. It counts as cell-based, human. The following applies: NHEK + Poly(I:C), IL4, IL13, 24 h; 0.28 mM DEXA; control NHEK = 1. As for the experimental part:
as §1, §2, §3, §4, §5, §6

Test [16] has as its system IL-6 secretion in RAW264.7 cells. Put plainly: IL6 assay by ELISA in LPS-activated RAW264.7 macrophages. It counts as cell-based. The following applies: Mus musculus, 1 μM dexamethasone 1 h before 0.2 μg/mL LPS, 24 h, read-out: inhibition of IL-6 secretion (% i).
From the text: In this example, we compare the anti-inflammatory activity of 2 Mimosa pudica extracts (E11 and E13). Extract E11 comes from ethyl acetate extraction of the dried and crushed Mimosa pudica leaves and extract E13 comes from extraction with the same solvent of the crushed materials derived from Mimosa pudica plant cell culture without bioconversion in an Erlenmeyer flask. The 2 extracts were weighed after evaporation of the solvent to dryness. They were taken up in DMSO. To evaluate and compare the anti-inflammatory activity of the 2 extracts in the same concentrations, we have an in vitro pharmacological test which consists in stimulating murine macrophages, RAW264.7 cells, that express on their surface the TLR4 receptor by the bacterial LPS according to (Kang et al. 2002. J Pharmacol Exp Ther. 302:138-144). Several parameters were studied and compared to a reference anti-inflammatory, dexamethasone: • nitrite production by the Griess technique. The nitrite level reflects the level of NO synthesis induced by inducible […] (iNOS). • cytokine secretion: interleukin-6 by ELISA • TNF-alpha production by multiplex assay Cell Culture
RAW264.7 cells are mouse macrophages in lineage. […]
as §8
(ELISA stands for enzyme-linked immunosorbent assay.)

For test [17], the system named is CCL27 (Chemokine (C-C motif) ligand 27). Put plainly: In vitro model of induced atopic dermatitis, RT-qPCR: CCL27. It counts as cell-based, human. The settings on record: NHEK + Poly(I:C), IL4, IL13, 24 h; 0.28 mM DEXA; control NHEK = 1. As for the experimental part: as §1, §2, §3, §4, §5, §6
Test [18] deals with IL8 (Interleukin 8). Briefly: In vitro model of induced atopic dermatitis, RT-qPCR: IL8. It counts as cell-based, human. The settings on record: NHEK + Poly(I:C), IL4, IL13, 24 h; 0.28 mM DEXA; control NHEK = 1. As for the experimental part: as §1, §2, §3, §4, §5, §6
Test [19] deals with nitrite production (NO synthesis induced by iNOS) in RAW264.7 cells. Briefly: Nitrite assay (Griess) in LPS-activated RAW264.7 macrophages. The format is cell-based. The following applies: Mus musculus, 1 μM dexamethasone 1 h before 0.2 μg/mL LPS, 24 h, read-out: inhibition of nitrite production (% i).
From the text: as §7, with “302:138-144). Several parameters were studied and compared to a reference anti-inflammatory, dexamethasone: • nitrite production by the Griess technique.” for “302:138-144).”
The level of NO synthesis is evaluated in fresh or frozen (−80° C.) cell supernatants, without affecting the assay. The principle of the assay is based on the Griess (diazotization) reaction which produces a pink azo compound with absorbance at 540 nm.
as §8
Background: Nitrite, measured by Griess reagent, commonly stands in for NO production.

In test [20] the test system is CCL11 (Chemokine (C-C motif) ligand 11). Briefly: In vitro model of induced atopic dermatitis, RT-qPCR: CCL11. The format is cell-based, human. The following applies: NHEK + Poly(I:C), IL4, IL13, 24 h; 0.28 mM DEXA; control NHEK = 1. As for the experimental part:
as §1, §2, §3, §4, §5, §6

Usually inhibition stands for the relative decrease from the control value, in per cent.

On to `C[C@@H]1C[C@H]2[C@@H]3CCC4=CC(=O)C=C[C@]4(C)[C@@]3(F)[C@@H](O)C[C@]2(C)[C@@]1(O)C(=O)CO` [dexamethasone], for which the “relative expression (RQ) of IL1B” value in test [1] worked out at 2.63. In addition, the “relative expression (RQ) of RNASE7” value in [2] came out at 43.23. Besides, the inhibition at 1 µM is 16% in test [3], 38% in test [16] and 35% in [19]. For the same compound, the “relative expression (RQ) of TSLP” value in test [4] came to 1.80. In addition, the “relative expression (RQ) of DEFB103A” value in test [5] is listed as 107.56. Moreover, the “relative expression (RQ) of IL15” value in test [6] was 29.16. For the same compound, the “relative expression (RQ) of IL4R” value in test [7] amounted to 7.03. The “relative expression (RQ) of IFNB1” value in test [8] turned out to be 1.90. Further, the “relative expression (RQ) of CCL5” value in test [9] is 49.90. The “relative expression (RQ) of CCL20” value in [10] was 28.94. Moreover, the “relative expression (RQ) of S100A7” value in test [11] was 79.12. Moreover, the “relative expression (RQ) of TLR3” value in test [12] came to 2.79. Also, in [13], the “relative expression (RQ) of CCL13” value was 1.98. Besides, the “relative expression (RQ) of IL1A” value in [14] was found to be 8.54. In addition, the “relative expression (RQ) of CX3CL1” value in test [15] was 36.63. For the same compound, the “relative expression (RQ) of CCL27” value in test [17] was determined as 0.71. For the same compound, the “relative expression (RQ) of IL8” value in test [18] was 7.89. Also, in test [20], the “relative expression (RQ) of CCL11” value came out at 1.14.
